Measured values as given in patent publication US7320679B2, “Therapeutic use of growth factor, and delivery device, especially for the treatment of intimal hyperplasia” (Ark Therapeutics, Ltd., priority 1996, dated 2008).
“Also recorded” adds a separate entry of the source. Blank lines part the entries; values can stand above or below the molecule they belong to.

Tests used:
Format in all cases: cell-based, human
cPLA2 = cPLA2 mobility shift assay in HUVEC; set-up: effect of PD98059 on VEGF-stimulated increase in slow-migrating cPLA2: dose or concentration left out as unconfirmed
Method: (§1) Cell Culture: HUVECs were obtained either from Clonetics and cultured in the manufacturer's own medium supplemented with 2% FBS, or were grown from fresh umbilical cords by collagenase digestion and cultured on 1% gelatin-coated plates in medium 199 supplemented with 20% FCS and endothelial cell growth supplement (Wheeler-Jones et al, Biochem. J. (1996) 315:407-416). For experimental purposes, primary cultures of HUVEC were dispersed by treatment with 0.05% trypsin/0.02% EDTA for 5 min at 37° C. and then replated in either 90 mm, 60 mm or 35 mm plastic dishes, or onto 24-well plates. Cultures were maintained in a humidified atmosphere containing 5% CO2 and […] at 37° C. and used after 6-8 days or when the cells had formed a confluent monolayer. […] The PGI2 content of cell supernatants was quantified by radioimmunoassay of 6-keto-PGF1a, the stable breakdown product of PGI2 as previously described (Wheeler-Jones et al, supra). Arachidonic Acid Release: Arachidonic acid release was determined essentially as described (Domin and Rozengurt, J. Biol. Chem. (1993) 268:8927-8934.). Confluent HUVEC cultures were incubated for 24 h with [5,6,8,9,11,12,14,15-^3H]arachidonic acid (1 mCi/ml, 211 Ci/mmol). […] After treatment, the medium was removed, centrifuged in a microcentrifuge at 16,000×g for 5 min, and the radioactivity in the supernatant was determined by counting in a scintillation counter. Western Blotting Procedures: Treatment of quiescent cultures of cells with factors, and cell lysis were performed as described above and in the Results and Figure Legends. After SDS-PAGE, proteins were transferred to Immobilon membranes (Millipore Inc.). For MAP kinase assays, membranes were blocked using 5% non-fat dried milk in PBS, pH 7.2, and incubated for 3-5 h in PBS/0.05% Tween-20 containing primary antibody (1 mg/ml) as indicated. For immunoblots with antibody to cPLA2, membranes were blocked for 3 h in TBST50 mM Tris/HCl, 150 mM NaCl, 0.02% (v/v) Tween 20 pH 7.4 (TBST) containing 0.2% (w/v) 1-block (Tropix), then incubated with primary antiserum in TBST. Membranes were then washed six times (10 min each wash) in TBST and incubated for 1 hour in TBST containing HRP-conjugated secondary antibody. Immunoreactive bands were visualized by chemiluminescence using HRP-conjugated anti-mouse or anti-rabbit IgG and ECL™ reagent according to the manufacturers instructions. MAP Kinase Assay: Cells were treated with factors as indicated, washed rapidly twice with ice-cold PBS and immediately extracted by the addition of […] boiling 2×SDS-PAGE sample buffer. Cell extracts were collected by scraping, heated to 95° C. for 10 min and run on 12.5% acrylamide SDS-PAGE gels. Following transfer to Immobilon membranes, proteins were immunoblotted with an antibody which specifically recognizes p42 and p44 MAP kinases (Erk-1 and Erk-2) activated by phosphorylation at Tyr204 (Payne e al, EMBO J. (1991) 10:885-892.). cPLA2 Mobility Shift Assay: Confluent quiescent HUVECs in 60 mm dishes were washed twice in serum-free medium 199 (pH 7.4) and subsequently exposed, for the times indicated, to medium containing factors as detailed in the Figure legends. Cell lysates were prepared as previously described (Wheeler-Jones et al, supra). Proteins were separated by SDS-PAGE (10% acrylamide) and after transfer to membranes were immunoblotted with polyclonal anti-serum to cPLA2 (BorschHaubold et al, J. Biol. Chem. (1995) 270: 25885-25892; and Kramer et al, J. Biol. Chem. (1996) 271:27723-27729). Assay of vWF Secretion: vWF secretion was measured by ELISA (Wheeler-Jones et al, supra) in samples of medium obtained from confluent cultures of HUVECs which had been treated with factors, as indicated. Plates were coated with the anti-vWF mAb CLBRAg35, and the lower detection limit of the assay was approximately 1.0 mU/ml. Materials: Recombinant VEGF was obtained either from UBI or from R & D Systems. […]

p42/p44 MAP kinases = assay: MAP kinase assay (phospho-p42/p44 immunoblot) in HUVEC; set-up: inhibition of VEGF-stimulated MAP kinase activity: dose or concentration left out as unconfirmed
Method: as §1

PGI2 synthesis in HUVEC = assay: PGI2 assay (radioimmunoassay of 6-keto-PGF1a) in HUVEC; conditions: for mean fold increase in 6-keto PGF1a above control unstimulated level: 60 min, 25 ng/ml VEGF, 60 ng/ml PIGF, 1 U/ml thrombin
Method: as §1

vWF secretion by HUVECs = assay: vWF secretion by ELISA in HUVEC; set-up: effect of PD98059 on VEGF-induced vWF secretion: dose or concentration left out as unconfirmed
Method: as §1

[1] = tested on: arachidonic acid release in HUVEC; assay: Arachidonic acid release from prelabelled HUVEC
Method: as §1

HUVECs = assay: Migration of HUVECs in chemotaxis chambers; conditions: PIGF 5-60 ng/ml

concentration reducing MAP kinase activity to control, unstimulated level (p42/p44 MAP kinases): 10 to 20 mM
inhibition of VEGF-stimulated MAP kinase activity (p42/p44 MAP kinases): greater than 50%
Molecule: COc1cccc(-c2cc(=O)c3ccccc3o2)c1N [PD98059, reference compound]
effect of PD98059 on VEGF-stimulated increase in slow-migrating cPLA2 (cPLA2): completely blocked; also recorded: complete inhibition
effect of PD98059 on VEGF stimulation of p42/p44 MAP kinases (p42/p44 MAP kinases; 30 min pretreatment): completely inhibited; also recorded: complete inhibition
concentration of maximum inhibitory effect on stimulated PGI2 production (PGI2 synthesis in HUVEC): 10 µM
effect of PD98059 on VEGF-induced PGI2 production (PGI2 synthesis in HUVEC; 30 mM PD98059 30 min pretreatment, 25 ng/ml VEGF 60 min): completely inhibited; also recorded: complete inhibition
effect of PD98059 on thrombin-induced PGI2 production (PGI2 synthesis in HUVEC; 30 mM PD98059 30 min pretreatment, 1 U/ml thrombin 60 min): completely inhibited
inhibitor concentration at which PGI2 production fell below control values (PGI2 synthesis in HUVEC; VEGF-treated cells): greater than 10 mM
PGI2 production in control, unstimulated cells (PGI2 synthesis in HUVEC; basal): abolished
effect of PD98059 on VEGF-induced vWF secretion (vWF secretion by HUVECs): neither prevented nor significantly reduced; also recorded: no effect
effect of PD98059 on basal or thrombin-stimulated vWF secretion (vWF secretion by HUVECs): no effect

Molecule: thrombin [reference compound]
cPLA2 mobility shift (in words) (cPLA2): striking shift
mean increase in release of labelled arachidonic acid above basal unstimulated level ([1]; four independent experiments): 3.4 fold
mean fold increase in 6-keto PGF1a above control unstimulated level (PGI2 synthesis in HUVEC): 4.4 fold

B1: PIGF: VEGF-related factor, a specific ligand for the Flt-1 VEGF receptor; recombinant (protein)
chain: AVPPQQWALSAGNGSSEVEVVPFQEVWGRSYCRALERLVDVVSEYPSEVEHMFSPSCVSLLRCTGCCGDENLHCVPVETANVTMQLLKIRSGDRPSYVELTFSQHVRCECRPLREKMKPERCGDAVPRR
cPLA2 mobility shift (in words) (cPLA2): no detectable shift
MAP kinase activity (in words) (p42/p44 MAP kinases; PIGF 1-60 ng/ml): little, if any, detectable increase; also recorded: little effect
arachidonic acid release (in words) ([1]; prelabelled HUVECs): no detectable significant increase
mean fold increase in 6-keto PGF1a above control unstimulated level (PGI2 synthesis in HUVEC): 1.3 fold
vWF secretion (in words) (vWF secretion by HUVECs): no detectable stimulation
chemotaxis of HUVECs (HUVECs): no detectable increase
